What was measured:
[1] = biological target: T1, human glucocorticoid receptor (GR) complex (Homo sapiens, UniProt P04150); assay: Glucocorticoid receptor competitive binding assay (fluorescence polarization, TAMRA-labeled dexamethasone probe); conditions: compounds of Formula (IA)
T1 construct: made in house; host or cells: insect expression system (baculovirus lysate)
T1 sequence (P04150 1-777): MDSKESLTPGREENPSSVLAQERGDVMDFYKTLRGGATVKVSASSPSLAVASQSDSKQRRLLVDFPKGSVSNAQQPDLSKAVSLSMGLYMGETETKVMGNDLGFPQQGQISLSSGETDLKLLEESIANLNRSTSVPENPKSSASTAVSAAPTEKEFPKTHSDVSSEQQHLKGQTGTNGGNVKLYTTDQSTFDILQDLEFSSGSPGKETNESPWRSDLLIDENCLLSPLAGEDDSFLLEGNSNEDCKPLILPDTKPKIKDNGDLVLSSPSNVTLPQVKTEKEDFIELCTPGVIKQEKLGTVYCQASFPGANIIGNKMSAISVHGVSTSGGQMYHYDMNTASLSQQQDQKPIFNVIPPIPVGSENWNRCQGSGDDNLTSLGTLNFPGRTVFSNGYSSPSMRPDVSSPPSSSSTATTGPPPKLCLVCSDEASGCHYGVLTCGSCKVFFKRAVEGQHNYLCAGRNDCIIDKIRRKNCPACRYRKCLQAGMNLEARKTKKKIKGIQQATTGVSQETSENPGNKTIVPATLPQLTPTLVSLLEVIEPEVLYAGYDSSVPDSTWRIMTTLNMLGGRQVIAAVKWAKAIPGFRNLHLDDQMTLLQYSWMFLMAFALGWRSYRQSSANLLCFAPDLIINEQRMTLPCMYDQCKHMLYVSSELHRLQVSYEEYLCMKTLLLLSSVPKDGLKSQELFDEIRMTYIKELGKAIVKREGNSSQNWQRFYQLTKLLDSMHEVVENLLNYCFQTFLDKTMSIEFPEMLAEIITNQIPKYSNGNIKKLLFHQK
Procedure, shortened: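 Fluorescence-polarization competition against 15 nM TAMRA-dexamethasone (stock added to the mix) for human GR complex from baculovirus lysate diluted 1:170. Buffer: 10 mM TES, 50 mM KCl, 20 mM Na2MoO4, 1.5 mM EDTA, 0.04% CHAPS, 10% glycerol, 1 mM DTT, pH 7.4. IC50 from 4-parameter logistic fit.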

[2] = test system: glucocorticoid receptor function; assay: one or more of the above assays (GR binding and glucocorticoid receptor cell assays: aromatase, IL-6, TAT, MMTV-Luc, IL-8, ICAM-Luc); type: cell-based; conditions: assay not specified per compound

activity in the GR binding assay [1] | SMILES | activity as agonists of the glucocorticoid receptor function in one or more of the above assays [2]
potent activity | CN(C)c1ccc(C(C)(C)CC(O)(Cc2ccnc3ccccc23)C(F)(F)F)cc1 (stereo not shown) [4-(4-Dimethylaminophenyl)-1,1,1-trifluoro-4-methyl-2-quinolin-4-ylmethylpentan-2-ol] | potent agonists
potent activity | Cc1cccc(C(C)(C)CC(O)(Cc2cc(C)nc(C)c2)C(F)(F)F)c1 (stereo not shown) [2-(2,6-Dimethylpyridin-4-ylmethyl)-1,1,1-trifluoro-4-methyl-4-m-tolylpentan-2-ol] | potent agonists
potent activity | Cc1cc(C#N)cc2[nH]c(CC(O)(CC(C)(C)c3cccc4c3OCC4)C(F)(F)F)cc12 (stereo not shown) [2-[4-(2,3-Dihydrobenzofuran-7-yl)-2-hydroxy-4-methyl-2-trifluoromethylpentyl]-4-methyl-1H-indole-6-carbonitrile] | potent agonists
potent activity | Cc1ccc(C(C)(C)CC(O)(Cc2ccnc3ccccc23)C(F)(F)F)cc1F (stereo not shown) [1,1,1-Trifluoro-4-(3-fluoro-4-methylphenyl)-4-methyl-2-quinolin-4-ylmethylpentan-2-ol] | potent agonists
potent activity | CC(C)(CC(O)(Cc1cc2cnccc2[nH]1)C(F)(F)F)c1cc(Cl)cc2c1OCC2 (stereo not shown) [4-(5-Chloro-2,3-dihydrobenzofuran-7-yl)-1,1,1-trifluoro-4-methyl-2-(1H-pyrrolo[3,2-c]pyridin-2-ylmethyl)pentan-2-ol] | potent agonists
potent activity | CC(C)(CC(O)(Cn1ccc2ncccc21)C(F)(F)F)c1cc(Cl)cc2c1OCC2 (stereo not shown) [4-(5-Chloro-2,3-dihydrobenzofuran-7-yl)-1,1,1-trifluoro-4-methyl-2-pyrrolo[3,2-b]pyridin-1-ylmethylpentan-2-ol] | potent agonists
potent activity | COc1ccc(F)cc1C(C)(C)CC(O)(Cc1cc2cc(C(=O)NCC#N)ccc2[nH]1)C(F)(F)F (stereo not shown) [2-[4-(5-Fluoro-2-methoxyphenyl)-2-hydroxy-4-methyl-2-trifluoromethylpentyl]-1H-indole-5-carboxylic acid cyanomethylamide] | potent agonists
potent activity | Cc1c(CC(O)(CC(C)(C)c2cccc(F)c2)C(F)(F)F)[nH]c2ccccc12 (stereo not shown) [1,1,1-Trifluoro-4-(3-fluorophenyl)-4-methyl-2-(3-methyl-1H-indol-2-ylmethyl)pentan-2-ol] | potent agonists
potent activity | COc1cc(F)ccc1C(C)(C)CC(O)(Cc1cc(C)nc(C)c1)C(F)(F)F (stereo not shown) [2-(2,6-Dimethylpyridin-4-ylmethyl)-1,1,1-trifluoro-4-(4-fluoro-2-methoxyphenyl)-4-methylpentan-2-ol] | potent agonists
potent activity | COc1ccc(F)cc1C(C)(C)CC(O)(Cc1cc2c(Cl)nc(N)nc2[nH]1)C(F)(F)F (stereo not shown) [2-(2-Amino-4-chloro-7H-pyrrolo[2,3-d]pyrimidin-6-ylmethyl)-1,1,1-trifluoro-4-(5-fluoro-2-methoxyphenyl)-4-methylpentan-2-ol] | potent agonists
potent activity | Cc1cc2c(c(C(C)(C)CC(O)(Cc3cc4ccncc4[nH]3)C(F)(F)F)c1)OCC2 (stereo not shown) [1,1,1-Trifluoro-4-methyl-4-(5-methyl-2,3-dihydrobenzofuran-7-yl)-2-(1H-pyrrolo[2,3-c]pyridin-2-ylmethyl)pentan-2-ol] | potent agonists
potent activity | CC(C)(CC(O)(Cc1ccnc2ccccc12)C(F)(F)F)c1cccc(F)c1 (stereo not shown) [1,1,1-Trifluoro-4-(3-fluorophenyl)-4-methyl-2-quinolin-4-ylmethylpentan-2-ol] | potent agonists
potent activity | Cc1cc(C)c(C(C)(C)CC(O)(Cc2[nH]c3ccccc3c2C#N)C(F)(F)F)cc1O (stereo not shown) [2-[2-Hydroxy-4-(5-hydroxy-2,4-dimethylphenyl)-4-methyl-2-trifluoromethylpentyl]-1H-indole-3-carbonitrile] | potent agonists
potent activity | COc1ccc(F)cc1C(C)(C)CC(O)(Cc1cc2c(C)cncc2[nH]1)C(F)(F)F (stereo not shown) [1,1,1-Trifluoro-4-(5-fluoro-2-methoxyphenyl)-4-methyl-2-(4-methyl-1H-pyrrolo[2,3-c]pyridin-2-ylmethyl)pentan-2-ol] | potent agonists
potent activity | Cc1ccc(F)cc1C(C)(C)CC(O)(Cc1cc2cc(N(C)C)ncc2[nH]1)C(F)(F)F (stereo not shown) [2-(5-Dimethylamino-1H-pyrrolo[2,3-c]pyridin-2-ylmethyl)-1,1,1-trifluoro-4-(5-fluoro-2-methylphenyl)-4-methylpentan-2-ol] | potent agonists
potent activity | COc1ccc(F)cc1C(C)(C)CC(O)(Cc1cc2cc(C(=O)N3CCOCC3)ccc2[nH]1)C(F)(F)F (stereo not shown) [{2-[4-(5-Fluoro-2-methoxyphenyl)-2-hydroxy-4-methyl-2-trifluoromethylpentyl]-1H-indol-5-yl}morpholin-4-ylmethanone] | potent agonists
potent activity | CC(C)(CC(O)(Cc1cc2cc(C(F)(F)F)ccc2[nH]1)C(F)(F)F)c1cc(F)ccc1O (stereo not shown) [4-Fluoro-2-[4,4,4-trifluoro-3-hydroxy-1,1-dimethyl-3-(5-trifluoromethyl-1H-indol-2-ylmethyl)butyl]phenol] | potent agonists
potent activity | COc1ccc(S(C)(=O)=O)cc1C(C)(C)CC(O)(Cc1[nH]c2ccccc2c1C#N)C(F)(F)F (stereo not shown) [2-[2-Hydroxy-4-(5-methanesulfonyl-2-methoxyphenyl)-4-methyl-2-trifluoromethylpentyl]-1H-indole-3-carbonitrile] | potent agonists
potent activity | Cc1c(CC(O)(CC(C)(C)c2cc(Cl)cc3c2OCC3)C(F)(F)F)[nH]c2cnccc12 (stereo not shown) [4-(5-Chloro-2,3-dihydrobenzofuran-7-yl)-1,1,1-trifluoro-4-methyl-2-(3-methyl-1H-pyrrolo[2,3-c]pyridin-2-ylmethyl)pentan-2-ol] | potent agonists
potent activity | COc1ccc2[nH]c(CC(O)(CC(C)(C)c3cc(F)ccc3C)C(F)(F)F)cc2n1 (stereo not shown) [1,1,1-Trifluoro-4-(5-fluoro-2-methylphenyl)-2-(5-methoxy-1H-pyrrolo[3,2-b]pyridin-2-ylmethyl)-4-methylpentan-2-ol] | potent agonists
potent activity | COc1ccc(F)cc1C(C)(C)CC(O)(Cc1cc2cc(NC(C)=O)ccc2[nH]1)C(F)(F)F (stereo not shown) [N-{2-[4-(5-Fluoro-2-methoxyphenyl)-2-hydroxy-4-methyl-2-trifluoromethylpentyl]-1H-indol-5-yl}acetamide] | potent agonists
potent activity | Cc1cc2[nH]c(CC(O)(CC(C)(C)c3cc(F)ccc3C)C(F)(F)F)cc2c(C)n1 (stereo not shown) [2-(4,6-Dimethyl-1H-pyrrolo[3,2-c]pyridin-2-ylmethyl)-1,1,1-trifluoro-4-(5-fluoro-2-methylphenyl)-4-methylpentan-2-ol] | potent agonists
potent activity | CC(C)(CC(O)(Cc1ccnc2ccccc12)C(F)(F)F)c1ccccc1F (stereo not shown) [1,1,1-Trifluoro-4-(2-fluorophenyl)-4-methyl-2-quinolin-4-ylmethylpentan-2-ol] | potent agonists

— US8741897B2, “Glucocorticoid mimetics, methods of making them, pharmaceutical compositions and uses thereof” (Boehringer Ingelheim Pharmaceuticals Inc., priority 2003, dated 2014)
